Measured values taken from patent publication US9073961B2, “Substitution derivatives of N6 -benzyladenosine-5′-monophosphate, methods of preparation thereof, use thereof as medicaments, and therapeutic preparations containing these compounds” (UNIVERZITA PALACKEHO V OLOMOUCI, priority 2010, dated 2015).

What was measured:
Assay type in all cases: cell-based
Human lymphocytes = assay: Immunosuppressive activity, 3H-thymidine incorporation in concanavalin A activated lymphocytes; conditions: 72 hours, [3H]-TdR incorporation, read-out: Human lymphocytes ED50
Summary of the method: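 Ficoll-separated peripheral blood mononuclear cells from healthy donors, stimulated with concanavalin A and exposed to six 4-fold compound dilutions (top 266.7 μM) for 72 h at 37 °C. Proliferation read by 6 h [3H]-thymidine pulse and scintillation counting; ED50 taken from dose-response curves versus control wells.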

caspase-3 = assay: Activity of caspase-3 in CEM cells (Apo-ONE kit); conditions: 10 μM, 12 and 24 hours
Procedure: In the course of apoptosis, caspase cascade is activated. Caspase-3 is an effector caspase that plays a role in the induction of some changes typical for apoptosis (chromatin condensation, DNA fragmentation).
Leukemia cell line CEM was cultured in cell culture medium (DMEM containing 5 g/l glucose, 2 mM glutamine, 100 U/ml peniciline, 100 μg/ml streptomycine, 10% fetal calf serum and sodium bicarbonate). 24 hours before treatment, cell suspensions were centrifuged, diluted to concentration of 500000 cells per ml with fresh medium and pipetted in 50 µL aliquotes into 96-well plate. After 12 and 24 hours of incubation with the test compound, the activity of caspase-3 was measured using commercial kit (Apo-ONE, Promega) that is based on quantification of hydrolysis of fluorogenic substrate Z-DEVD-R110 (excitation 480 nm/emission 520 nm). Reaction specifity was confirmed in a control experiment, when both test compound and caspase-3 inhibitor Ac-DEVD-CHO were added. All experiments were done in triplicate.

Leukemia cell line CEM = assay: Flow cytometry analysis of apoptosis (DNA fragmentation, sub-G1) in CEM
Procedure: One of the hallmarks of apoptosis is fragmentation of DNA. It can be measured by flowcytometry of the cells stained with propidium iodide. Because the fragmentation results in a loss of a fraction of the nuclear DNA, apoptotic cells have a lower DNA content than cells in G1 phase of cell cycle and can be detected as a subG1 peak in the histogram.
Leukemia cell line CEM was cultured in cell culture medium (DMEM containing 5 g/l glucose, 2 mM glutamine, 100 U/ml penicillin, 100 μg/ml streptomycine, 10% fetal calf serum and sodium bicarbonate). 24 hours before treatment, cell suspensions were centrifuged, diluted with fresh medium to concentration of 100000 cells per ml with fresh medium and pipetted in 10 ml aliquotes Petri dishes. After an incubation for a given time period, the cells were collected by centrifugation (4° C., 600 g), washed with PBS (4° C.) and fixed with 70% ethanol at −20° C. overnight. Low molecular weight DNA fragmentse were extracted with citrate buffer (11.36 g trisodium citrate dihydrate/l). The nuclei were stained with the solution of propidium iodide in PBS (10 μg/ml) containing RNase A (60 IU per sample). After 1 hour incubation the samples were analyzed by flowcytometry (excitation 488 nm, emission above 620 nm).

In the case of `O=P(O)(O)OC[C@H]1O[C@@H](n2cnc3c(NCc4ccccc4O)ncnc32)[C@H](O)[C@@H]1O` [Compound 21, 6-(2-hydroxybenzylamino)purine riboside-5′-monophosphate], the EC50 (Human lymphocytes) is reported as 6.7 µM, the “activation of caspase-3” value (caspase-3) is reported as “activates caspase-3” and the “time after which DNA fragmentation effect was visible” value (Leukemia cell line CEM) is reported as at most 12 h. The “induction of DNA fragmentation (apoptotic sub-G1 fraction)” value (Leukemia cell line CEM; IC50, triple IC50 and fivefold IC50) was “induction of DNA fragmentation is dependent on the concentration of compound 21 and the time of the treatment”.
